Test results from article PMC6429459, “The HslV Protease from Leishmania major and Its Activation by C-terminal HslU Peptides” (International Journal of Molecular Sciences, 2019).
Square brackets hold non-standard residues; d marks the D form. Peptide text beside a SMILES is read from it. * marks the point of attachment. AMC = Cc1cc(=O)oc2cc(N*)ccc12; Cbz = O=C(OCc1ccccc1)*; AEEA = NCCOCCOCC(=O)O

Experiments:
LmHslV = assay: Degradation of fluorogenic substrates by LmC12-U2-activated LmHslV; assay type: biochemical, Leishmania major; conditions: LmHslV 75.2 nM, 37 °C, substrate 100 μM, activating peptide LmC12-U2 500 μM; Figure 2; in words
Procedure: Activity assay: The peptidase activity of recombinant LmHslV was assessed by measuring the fluorescence of AMC released after hydrolysis of the fluorogenic substrates Z-GGL-AMC or JMV4482 (Z-EVNL-AMC), 100 µM. LmHslV activation was obtained by addition of activating peptides (see type and concentration in the figure legends). Activity buffer: 25 mM Tris-HCl pH 8.0, 1 mM DTT, 0.5 mM EDTA and 5 mM MgCl2. Most of the experiments were performed in a final volume of 50 µL in black 96-well microplates (Fisher Scientific, Illkirch, France. Fluorescence was measured using a spectrofluorimeter (BIO-TEK Instrument, Inc., Winooski, VT, USA): filters 360/340 for excitation and 460/440 for emission.
Figure 2 Degradation of different fluorogenic substrates by LmHslV. LmHslV (75.2 nM) was incubated at 37 °C with different fluorogenic substrates (100 μM) in the presence of the activating peptide LmC12-U2 (500 μM). The fluorescence of the free AMC group, proportional to the activity of the sample, was measured at 2 min. intervals. With each substrate, no activity was measured in the absence of activating peptide: for the sake of clarity, only the negative control values obtained with the substrate ZGGL-AMC are shown.

[1] = biological target: HslV from E. coli (EcHslV) (Escherichia coli, UniProt P0A7B8); conditions: compared with Z-GGL-AMC; in words
HslV from E. coli (EcHslV), sequence (P0A7B8 2-176): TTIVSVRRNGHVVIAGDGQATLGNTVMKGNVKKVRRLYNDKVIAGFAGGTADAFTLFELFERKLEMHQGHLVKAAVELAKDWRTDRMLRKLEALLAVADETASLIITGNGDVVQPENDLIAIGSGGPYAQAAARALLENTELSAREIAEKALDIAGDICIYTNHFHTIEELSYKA
Text: A further improvement to our assays was the development of a novel fluorogenic peptide substrate, which was more convenient to use than Z-GGL-AMC. Indeed, although the substrate Z-GGL-AMC mostly used in the literature for the studies of HslV has proven useful, its use is limited by its poor solubility in aqueous solutions [6, 36]. In view of finding alternative substrates for LmHslV, we tested a variety of possible fluorogenic substrates (commercial or home-made) including Suc-LLVY-AMC, a classical substrate used for the eukaryotic proteasome, in the presence of the reference activator peptide LmC12-U2.

[2] = Solubility in aqueous assay solutions (observation); conditions: aqueous assay conditions, peptide concentrations in the millimolar range; in words

Row | Compound | Degradation of fluorogenic substrate by activated LmHslV (LmHslV) | Degradation of fluorogenic substrate by EcHslV [1] | Solubility of activating peptide [2]
1 | Cbz-EVNL-{AMC} (SMILES Cc1cc(=O)oc2cc(NC(=O)[C@H](CC(C)C)NC(=O)[C@H](CC(N)=O)NC(=O)[C@@H](NC(=O)[C@H](CCC(=O)O)NC(=O)OCc3ccccc3)C(C)C)ccc12) [Z-EVNL-AMC] | more efficiently degraded by LmHslV than Z-GGL-AMC and Suc-LLVY-AMC | more efficiently degraded by HslV from E. coli (EcHslV) than Z-GGL-AMC | 
2 | CC[C@H](C)[C@H](NC(=O)[C@H](Cc1ccccc1)NC(=O)[C@H](CCCCN)NC(=O)[C@H](CCCCN)NC(=O)[C@@H](NC(=O)[C@H](CC(=O)O)NC(=O)[C@@H](NC(=O)[C@H](CCCCN)NC(=O)[C@H](CCCCN)NC(=O)[C@@H](NC(=O)[C@H](CCSC)NC(=O)COCCOCCNC(=O)[C@H](N)CCCNC(=N)N)C(C)C)C(C)C)[C@@H](C)CC)C(=O)N[C@@H](CC(C)C)C(=O)O [Compound 8] (H-[dR][AEEA]MVKKVDIKKFIL-OH) |  |  | significantly more soluble than C8-U1
